# Patent publication US20100145901A1, “MATRIX MARKER MODEL AND METHODS FOR ASSESSING AND TREATING ARTHRITIS AND RELATED DISORDERS” (priority 2007, published 2010)
# What was measured:
# RA patients = conditions: 25 studies, 3907 RA patients; cited from earlier work
# patients with active RA = assay: ASPIRE trial: joint damage progression (modified Sharp/van der Heijde score) baseline to week 54; type: in vivo, human
# Description: Details on the patient population and study protocol on which we have tested our model have been presented previously (StClair et al. Arthritis Rheum 2004; 50:3432-3443). […] In addition, patients had >=10 swollen joints (66 joint count), >=12 tender joints (68 joint count), and >=1 of the following: rheumatoid factor (RF) positivity, radiographic erosions of the hands or feet, or serum C-reactive protein (CRP) level >=2.0 mg/dl.
# The institutional review boards at participating sites approved the study protocol. All patients provided written informed consent. Patients were randomized in a 4:5:5 ratio to receive placebo, infliximab 3 mg/kg, or infliximab 6 mg/kg at weeks 0, 2, and 6, and then every 8 weeks through week 46. All patients were treated with oral MTX starting at 7.5 mg/week at week 0; MTX doses were increased by 2.5 mg every 1-2 weeks to reach 15 mg/week by week 4 and 20 mg/week by week 8. MTX was administered to all patients through week 54. Patients also received folic acid >=5 mg/week.
# The American College of Rheumatology core set variables (Felson A&R 1993), including numbers of tender and swollen joints, were documented at each visit. The 28 joint count (Prevoo A&R 1995) was used in the creation of our model as it is more appropriate and more frequently used in daily clinical practice as compared to the 66/68 count. The Westergren method (Koepke 1988) was used to determine erythrocyte sedimentation rate (ESR) at weeks 0, 6, 30, and 54; normal ESR levels were <=20 mm/hour for women and <=15 mm/hour for men. CRP levels (normal <0.8 mg/dl) were measured by nephelometry (Stites 1997) at screening and each visit thereafter. (If possible RF testing should be specified as different IG's tested for have different correlation with radiological progression. Radiographs of the hands and feet were obtained within 4 weeks of receiving the first dose of the study drug, at weeks 30 and 54, and upon use of a protocol-prohibited medication or study termination, as applicable. Joint damage was assessed by change in the modified Sharp/van der Heijde score (SHS) (vander Heijde Lancet 1989) from baseline to week 54.
# Of the 1,049 patients enrolled in the ASPIRE trial, 1,004 were prospectively identified as eligible for inclusion in the efficacy analyses prior to unblinding (StClair A&R 2004). […] Summary statistics of median, mean, and interquartile ranges are presented for continuous variables. Spearman correlation analyses were performed to evaluate the association between baseline covariates and changes in radiographic scores. Tests for statistical significance were performed using analysis of variance on van der Waerden normal scores. For categorical response parameters, treatment group comparisons were made using the chi-square test. […]
Compound,change in erosion scores versus placebo (RA patients),further results
Cc1oncc1C(=O)Nc1ccc(C(F)(F)F)cc1 [leflunomide],statistically better than placebo,–
"O=C(O)c1cc(/N=N/c2ccc(S(=O)(=O)Nc3ccccn3)cc2)ccc1O [SSZ, sulphasalazine]",statistically better than placebo,–
interleukin 1 receptor antagonist: interleukin 1 receptor antagonist,statistically better than placebo,–
infliximab,statistically better than placebo,rank versus other agents in preventing radiological progression (RA patients): superior to the last five agents
"CN(Cc1cnc2nc(N)nc(N)c2n1)c1ccc(C(=O)N[C@@H](CCC(=O)O)C(=O)O)cc1 [MTX, methotrexate]",statistically better than placebo,change in the SHS from baseline to week 54 (mean+/−SD) (patients with active RA; MTX alone): 3.7+/−9.6; patients showing an increase in radiographic score (patients with active RA; baseline to week 54): 61%; patients showing an increase of radiographic score of at least 5 SHS units (patients with active RA; baseline to week 54): 23%; patients with SHS of 0 at baseline who did not progress (patients with active RA; baseline to week 54): 63%
CC(=O)OC[C@H]1O[C@@H]([S-])[C@H](OC(C)=O)[C@@H](OC(C)=O)[C@@H]1OC(C)=O.CCP(CC)CC.[Au+] [auranofin],statistically better than placebo,–
